# Data reported in paper PMC11093748, “De novo identification of CD4^+ T cell epitopes” (Nature Methods, 2024).
# Assays:
# [1] = system: GSE.20D11 TCR; assay: HLA-DQ8 SABR-II (+ HLA-A2.1 SABR) library screen, enrichment score; format: cell-based, human
# Source text: To test whether HLA-DQ8 SABR-II could be used for antigen discovery, we curated a list of insulin B, insulin C and HIP epitopes published by Wiles et al.[58] and cloned them into the DQ8 SABR-II backbone using the same pooled cloning strategy as the I-Ag7 SABR-II library (Supplementary Table 2). Furthermore, we combined SABR-I (the HLA-A*0201 library reported in our previous work[27]) and SABR-II libraries at a cellular level and screened against the GSE.20D11 TCR.
# (§1) To generate the I-Ag7 restricted SABR library, we combined all Immune Epitope Database epitopes with a published immunopeptidome generated by Wan et al.[51]. Sequences were filtered remove all post-translational modifications except deamidation and HIPs and trimmed between 9–25 amino acid lengths. For the insulin C HIP and HLA-DQ8 library, non-contiguous epitopes from Wiles et al.[66] as well as all Immune Epitope Database epitopes were combined to generate the epitope list. Epitope sequences were back-translated using the backtranslate_fast.py script.
# (§2) For SABR library screens, 3 × 10^6 NFAT–GFP Jurkat cells expressing the SABR library were labeled with CellTrace Violet (BioLegend) according to the manufacturer’s protocol before incubation with 3 × 10^6 Jurkat cells expressing the TCR of interest. These mixtures were incubated in a six-well plate for 16–20 h. Cells were stained with anti-CD69-APC-Cy7 where indicated (BioLegend) and the top 1–2% of GFP^+CD69^+ cells were sorted for genomic DNA extraction, indexing and sequencing (see below). Multiplexed assays were scaled on a per-TCR basis (for example 3 × 10^6 for each of three TCRs against 9 × 10^6 library cells). For single SABR assays, unless otherwise defined, 5 × 10^5 SABR expressing NFAT–GFP Jurkat cells (or 5KC cells) were labeled with CellTrace Violet (BioLegend) according to the manufacturer’s protocol before incubation with 5 × 10^5 TCR-expressing Jurkat cells (or 5KC cells) in a round-bottom 96-well plate for 16–20 h. Cells were stained with anti-CD69-APC-Cy7 when indicated and acquired on the Attune NxT flow cytometer (Thermo Fisher Scientific). All flow analysis was performed using FlowJo (BD). For Daudi cell co-culture, 1 × 10^6 Jurkat cells expressing the TCR of interest were incubated with 1 × 10^6 Daudi cells expressing a SABR of interest for 3 days. On day 3, cells were labeled with anti-RT1B-PE and anti-Fas-APC-Cy7 before being acquired on the Attune NxT flow cytometer.
# Genomic DNA was extracted from sorted cells immediately after sorting, using the PureLink genomic DNA extraction kit (Life Technologies). The integrated SABR vectors were amplified with KOD polymerase (Millipore) and two rounds of amplification. In the first round, IDT-UD-SABR-C2-F and IDT-UD-SABR-C2-R primers were used to amplify the epitope. In the second round, UDI0001-R and UDI0001-F primers (representative of index 1) were used to add Illumina unique dual indexes (UDIs) to the amplicons. A different UDI was used for each sample. The reactions were pooled and purified with the NucleoSpin gel and PCR purification kit (Takara). The purified PCR product was checked before sequencing using 2% agarose gel and subjected to sequencing on a HiSeq4000 (Fulgent Genetics). Unaligned reads generated by the sequencer were stored in FASTQ files. FASTQ files were concatenated to generate one file for read1 and read2 each. The sequences were demultiplexed into individual indexes using demultiplex_dual.py. Epitopes were extracted and scored using epitope_extract_fastq_v1.1.py and merge_counts_split_v2.1.py. The ES was calculated using Microsoft Excel (Microsoft) workbooks.
# [2] = system: TCR2; assay: I-Ag7 SABR-II HIP library screen, enrichment score; format: cell-based, mouse; conditions: TCR_Mean of 3 replicates minus PREDICTED_TCR (slope 0.896988, intercept 4.04602e-5)
# Source text: (§3) Given the predominance of HIP-reactive TCRs, we hypothesized that there may be other TCRs that respond to HIPs that were not encoded in our initial library configuration. While the initial I-Ag7 SABR-II library consisted of a number of HIPs, HIP formation is thought to be more widespread in pancreatic β-cells[52],[70]. Therefore, we sought to construct a defined, HIP-focused library to probe whether there were any undiscovered HIP-reactive TCRs that could be recognized by the clonally expanded TCR in our dataset. To test this, we utilized a published proteomic dataset, which predicted that several proteins that were highly expressed in secretory granules of β-cells may contribute to HIP formation. Using their predictions, we built a theoretical HIP library, in which all possible ‘left’ halves of the insulin C chain derived from natural cleavage products were fused to ‘right’ halves derived from secretory granule proteins (Fig. 5a). This 2,561-epitope library (12–25 amino acids per epitope) consisted of only HIPs and a small number of positive control epitopes (Supplementary Table 5). We screened the top three clonally expanded TCRs (TCR1, TCR2 and TCR3) against this library, as these TCRs had not been de-convoluted using the original library. […] To confirm that the HIP itself was important for the cognate interaction, we cloned single 14-mer epitopes into SABR-IIs consisting of seven amino acids of the left portion of the HIP and seven amino acids of the right portion of the HIP. In this way, no nine amino acids from either peptide sequence alone could occupy the binding pocket of I-Ag7, ensuring that TCR reactivity spanned the HIP junction. […] Of note, in all the epitopes that were tested, the ‘left’ half derived from insulin C was conserved, whereas the ‘right’ halves were derived from several other proteins (Fig. 5d). […] Moreover, the promiscuous binding of TCR3 to HIPs corroborates evidence from other NOD mouse-derived TCRs reacting to multiple HIPs[72].
# as §1
# as §2, with “cytometer. […]” for “cytometer.”
# [3] = system: TCR1; assay: I-Ag7 SABR-II HIP library screen, enrichment score; format: cell-based, mouse; conditions: TCR_Mean of 3 replicates minus PREDICTED_TCR (slope 0.931777, intercept 2.67961e-5)
# Source text: as §3, §1
# as §2, with “cytometer. […]” for “cytometer.”
# [4] = system: Jurkat cells, No TCR; assay: Single SABR-II co-incubation, background without TCR; format: cell-based, human; conditions: No TCR
# Procedure, shortened: (§4)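 Single SABR-II constructs for putative cognate epitopes were expressed in CellTrace Violet-labelled NFAT–GFP Jurkat cells and co-incubated 1:1 (5 × 10^5 each) with TCR-expressing Jurkat cells for 16–20 h. GFP (with CD69 staining when indicated) was measured by flow cytometry. Wells with GFP above the no-TCR control were scored positive.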
# [5] = system: TCR15; assay: Single SABR-II co-incubation, NFAT-GFP Jurkat; format: cell-based, mouse; conditions: TCR 15, Fig 3B, 18 h
# Procedure, shortened: as §4
# [6] = system: TCR4; assay: Single SABR-II co-incubation, NFAT-GFP Jurkat; format: cell-based, mouse; conditions: TCR 4
# Procedure, shortened: as §4
# [7] = system: GSE.20D11 TCR; assay: Single SABR-II co-incubation, NFAT-GFP Jurkat (HLA-DQ8); format: cell-based, human; conditions: GSE 20.D11 TCR
# Source text: (§5) We have previously described SABRs, which are chimeric receptors containing an extracellular pMHC complex attached to an intracellular CD28-CD3ζ signaling domain. […] We sought to expand this platform to allow antigen discovery for MHC/HLA-II with seamless integration with class I alleles. Here, we created SABRs to present epitopes in MHC-II alleles, by covalently linking the epitope to the β-chain of MHC-II that is attached to the CD28-CD3ζ signaling domains downstream, along with a 2A peptide-linked MHC-II α-chain (Fig. 1a,b). To test whether SABR-IIs could present epitopes to TCRs and induce a signal, we expressed them using lentiviral vectors in NFAT–GFP Jurkat cells, which express green fluorescent protein (GFP) upon NFAT activation and translocation downstream of CD3ζ activation (a kind gift from Y. Chen and A. Weiss). We constructed murine SABR-IIs presenting epitopes in I-Ab, I-Ad and I-Ag7 (Ova, […][41]; ATEG, […][42]; and 2.5mimo, […][43], respectively). We co-incubated the SABR-II-expressing NFAT–GFP Jurkat cells with a separate population of Jurkat cells expressing either the BDC2.5 TCR (recognizes I-Ag7-2.5mimo), OT-II TCR (recognizes I-Ab-Ova), 5-4-E8 TCR (recognizes I-Ad-ATEG) or no TCR. […] The signal from the NFAT–GFP reporter offered minimal background in absence of a cognate TCR and correlated with surface SABR expression in the presence of a cognate TCR (Extended Data Fig. 1c–e). […] We confirmed the ability of the DQ8-InsB9:23 SABR-II to present the epitope to two previously described, T1D patient-derived TCRs GSE.6H9 and GSE.20D11 (ref. [46]).
# as §2
# [8] = system: GSE.6H9 TCR; assay: as above; format: cell-based, human; conditions: GSE 6.H9 TCR
# Source text: as §5, §2
# [9] = ES = TCRObserved - TCRPredicted, TCRPredicted = LIBObserved x SLOPE + INTERCEPT, SLOPE 1.10224, INTERCEPT -1.65707e-5
# [10] = HLA-A2.1 and HLA-DQ8 SABR libraries screened simultaneously, reads mapped to DQ8 library, one biological experiment
# [11] = Ext. Data Fig. 6C, 18-20 hr, technical replicate 1
# [12] = Ext. Data Fig. 6C, 18-20 hr, technical replicate 2
# [13] = Fig 3B, 18 h, biological replicate 1
# [14] = Fig 3B, 18 h, biological replicate 2
# [15] = Fig 3B, 18 h, biological replicate 3
sequence,measurement,setting,value
AAPSVFIFPPSDEQLK,Enrichment score,[1]; [9],-0.0003017
same,Enrichment score,[1]; [10],-0.0003017
AASKERSGVSL,Enrichment score,[1]; [9],3.541e-5
same,Enrichment score,[1]; [10],3.541e-5
APKRPPSAF,Enrichment score,[1]; [9],2.7496e-5
same,Enrichment score,[1]; [10],2.7496e-5
CDGERPTLAFLQDVM,Enrichment score,[1]; [9],-0.0002437
same,Enrichment score,[1]; [10],-0.0002437
EVEDPQVAQLNAARDPNRESLD,Enrichment score,[2],0.0005844
EVEDPQVEQLEGEDDPDRSMK,Enrichment score,[2],0.000574
EVEDPQVEQLELSGKEVKGEEKGE,Enrichment score,[3],0.0005139
EVEDPQVEWSRMDQLAKELT,Enrichment score,[3],0.0005047
EVQEKPQELTDQDQSQEESQEG,Enrichment score,[3],0.0005738
GAGDLQTLALEVEEEGSANRRAED,Enrichment score,[2],0.0005985
GDLQTLALEVAQSGKEVKGEEKGE,Enrichment score,[3],0.0005301
LQTLALNAARD,%GFP+CD69+ cells of SABR-NFAT-GFP-Jurkat cells,[4]; [11],4.02%
same,%GFP+CD69+ cells of SABR-NFAT-GFP-Jurkat cells,[4]; [12],3.97%
same,%GFP+CD69+ cells of SABR-NFAT-GFP-Jurkat cells,[4]; [13],2.49%
same,%GFP+CD69+ cells of SABR-NFAT-GFP-Jurkat cells,[4]; [14],7.87%
same,%GFP+CD69+ cells of SABR-NFAT-GFP-Jurkat cells,[4]; [15],3.83%
same,%GFP+CD69+ cells of SABR-NFAT-GFP-Jurkat cells,[5]; biological replicate 1,43.67%
same,%GFP+CD69+ cells of SABR-NFAT-GFP-Jurkat cells,[5]; biological replicate 2,48.77%
same,%GFP+CD69+ cells of SABR-NFAT-GFP-Jurkat cells,[5]; biological replicate 3,51.63%
same,%GFP+CD69+ cells of SABR-NFAT-GFP-Jurkat cells,[6]; [11],22.3%
same,%GFP+CD69+ cells of SABR-NFAT-GFP-Jurkat cells,[6]; [12],22%
same,%GFP+CD69+ cells of SABR-NFAT-GFP-Jurkat cells,[6]; [13],42.4%
same,%GFP+CD69+ cells of SABR-NFAT-GFP-Jurkat cells,[6]; [14],41.7%
same,%GFP+CD69+ cells of SABR-NFAT-GFP-Jurkat cells,[6]; [15],45.77%
PGDLQTLALEVALLDEGHYPVRES,Enrichment score,[2],0.0008737
SHLVEALYLVCERG,Frequency of %GFP+CD69+ cells of SABR-NFAT-GFP-Jurkat cells,[7]; biological replicate 1 of 3,24.8%
same,Frequency of %GFP+CD69+ cells of SABR-NFAT-GFP-Jurkat cells,[7]; biological replicate 2 of 3,42.4%
same,Frequency of %GFP+CD69+ cells of SABR-NFAT-GFP-Jurkat cells,[7]; biological replicate 3 of 3,41.1%
same,Frequency of %GFP+CD69+ cells of SABR-NFAT-GFP-Jurkat cells,[8]; biological replicate 1 of 3,16.8%
same,Frequency of %GFP+CD69+ cells of SABR-NFAT-GFP-Jurkat cells,[8]; biological replicate 2 of 3,29.6%
same,Frequency of %GFP+CD69+ cells of SABR-NFAT-GFP-Jurkat cells,[8]; biological replicate 3 of 3,27.9%
SPGDLQTLALEVPSPKESKEADVA,Enrichment score,[3],0.0005282
VAQLELGGGPGASEASAKKKDESV,Enrichment score,[2],0.0007771
